Data taken from patent US10124004B2, “Pyrido[3,4-d]pyrimidine derivative and pharmaceutically acceptable salt thereof” (Teijin Pharma Limited, priority 2015, dated 2018).
pIC50: −log10 of the molar value.

How the values were obtained:
CDK4/cyclin D3 = target: T1, CDK4/cyclin D3 (Homo sapiens, UniProt P11802); test: Human CDK4/cyclin D3 inhibitory activity (QS S Assist CDK4/Cyclin D3_FP Kit, IMAP fluorescence polarization); type: biochemical; conditions: 50% inhibitory concentration against CDK4/cyclin D3, given as class symbol
T1 construct: purchased Carna Biosciences, Inc. QS S Assist CDK4/Cyclin D3_FP Kit
Outline: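 IMAP fluorescence polarization kit: CDK4/cyclin D3 at 12.5-25 ng/well with kit ATP/substrate/metal mix in 20 mM HEPES pH 7.4, 0.01% Tween20, 2 mM DTT, 45 min at room temperature. FP read at 485/535 nm after 30 min binding; IC50 from dose-response fit of percent inhibition versus enzyme and no-enzyme controls.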

CDK2/cyclin A2 = target: T2, CDK2/cyclin A2 (Homo sapiens, UniProt P24941); test: Human CDK2/cyclin A2 inhibitory activity (QS S Assist CDK2/Cyclin A2_FP Kit, IMAP fluorescence polarization); type: biochemical; conditions: 50% inhibitory concentration against CDK2/cyclin A2, given as class symbol
T2 construct: purchased Carna Biosciences, Inc. QS S Assist CDK2/Cyclin A2_FP Kit
Outline: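 Kinase activity read as fluorescence polarization (485/535 nm) after phosphorylated fluorescent substrate binds IMAP reagent (30 min, RT, dark). Enzyme (2.5 ng/well) reacted 60 min at RT with ATP/substrate/metal in HEPES pH 7.4 buffer with Tween 20 and DTT; no-enzyme wells define 0% activity; IC50 by curve fit.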

T1 sequence (P11802 whole entry): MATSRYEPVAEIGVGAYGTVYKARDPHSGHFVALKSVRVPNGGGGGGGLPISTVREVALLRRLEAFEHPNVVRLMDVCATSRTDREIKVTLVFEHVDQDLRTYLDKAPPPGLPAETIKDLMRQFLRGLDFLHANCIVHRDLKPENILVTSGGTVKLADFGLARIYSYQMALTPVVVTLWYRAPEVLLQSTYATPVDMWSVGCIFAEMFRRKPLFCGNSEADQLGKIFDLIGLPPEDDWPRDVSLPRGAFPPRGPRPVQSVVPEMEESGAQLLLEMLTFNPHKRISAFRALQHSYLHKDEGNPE
T1 sequence (P30281 whole entry partner): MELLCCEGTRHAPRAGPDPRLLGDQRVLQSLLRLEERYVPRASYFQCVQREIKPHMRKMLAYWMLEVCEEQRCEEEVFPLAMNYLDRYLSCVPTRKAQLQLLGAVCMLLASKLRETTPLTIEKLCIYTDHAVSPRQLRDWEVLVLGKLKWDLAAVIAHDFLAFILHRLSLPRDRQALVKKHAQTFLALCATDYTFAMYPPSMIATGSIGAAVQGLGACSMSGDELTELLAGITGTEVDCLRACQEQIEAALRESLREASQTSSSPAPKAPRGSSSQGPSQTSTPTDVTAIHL

| SMILES | pIC50 (CDK4/cyclin D3) | pIC50 (CDK2/cyclin A2) |
| --- | --- | --- |
| CC(C)Nc1nc(C2CCOC2)cc2cnc(Nc3ccc(N4CCN(CC(=O)O)CC4C(F)(F)F)cn3)nc12 (stereo not shown) [Compound 889] | 7.00 to 8.00 | ≤ 7.00 |
| CC(C)Nc1nc(C2(C)COC2)cc2cnc(Nc3ccc(N4CCN(CC(=O)O)CC4C(F)(F)F)cn3)nc12 (stereo not shown) [Compound 890] | 7.00 to 8.00 | ≤ 7.00 |
| CO[C@H](C)c1cc2cnc(Nc3ccc(N4CCCC(C(=O)O)C4)cn3)nc2c(NC(C)C)n1 (stereo partly shown) [Compound 893] | 7.00 to 8.00 | ≤ 7.00 |
| CO[C@H](C)c1cc2cnc(Nc3ccc(N4CCN(C(C)C(=O)O)CC4=O)cn3)nc2c(NC(C)C)n1 (stereo partly shown) [Compound 897] | 7.00 to 8.00 | ≤ 7.00 |
| CC(C)Nc1nc([C@@H](C)O)cc2cnc(Nc3ccc(N4CCN(CC#N)CC4=O)cn3)nc12 [Compound 899] | > 8.00 | ≤ 7.00 |
| CC(C)Nc1nc([C@@H](C)O)cc2cnc(Nc3ccc(N4CCN(CC(N)=O)CC4=O)cn3)nc12 [Compound 900] | > 8.00 | ≤ 7.00 |
| CC(C)Nc1nc([C@@H](C)O)cc2cnc(Nc3ccc(N4CCN(C(C)C#N)CC4)nn3)nc12 (stereo partly shown) [Compound 902] | > 8.00 | ≤ 7.00 |
| C[C@@H](O)c1cc2cnc(Nc3ccc(N4CCNCC4=O)cn3)nc2c(NC2(C)CCCOC2)n1 (stereo partly shown) [Compound 903] | > 8.00 | 7.00 to 8.00 |
| CO[C@H](C)c1cc2cnc(Nc3ccc(N4CCN(CC#N)CC4)nn3)nc2c(NC(C)C)n1 [Compound 906] | 7.00 to 8.00 | ≤ 7.00 |
| CO[C@H](C)c1cc2cnc(Nc3ccc(N4CCN(CC(N)=O)CC4)nn3)nc2c(NC(C)C)n1 [Compound 908] | > 8.00 | ≤ 7.00 |
| CC(=O)c1cc2cnc(Nc3ccc(N4CCNCC4)nn3)nc2c(NC(C)(C)C)n1 [Compound 909] | > 8.00 | ≤ 7.00 |
| CC(=O)c1cc2cnc(Nc3ccc(CN4CCNCC4)cn3)nc2c(NCC(C)C)n1 [Compound 912] | > 8.00 | ≤ 7.00 |
| CO[C@H](C)c1cc2cnc(Nc3ccc(CN4CCN(CCO)CC4)cn3)nc2c(NC(C)(C)CO)n1 [Compound 913] | > 8.00 | ≤ 7.00 |
| CO[C@H](C)c1cc2cnc(Nc3ccc(CN4CCN(CCO)CC4)cn3)nc2c(N[C@H](C)CO)n1 [Compound 914] | > 8.00 | ≤ 7.00 |
| CO[C@H](C)c1cc2cnc(Nc3ccc(CN4CCN(CCO)CC4)cn3)nc2c(N[C@@H](C)CO)n1 [Compound 915] | > 8.00 | ≤ 7.00 |
| COC[C@@H](C)Nc1nc([C@@H](C)OC)cc2cnc(Nc3ccc(CN4CCN(CCO)CC4)cn3)nc12 [Compound 916] | > 8.00 | ≤ 7.00 |
| CO[C@H](C)c1cc2cnc(Nc3ccc(CN4CCN(CCO)CC4)cn3)nc2c(N[C@H]2CC[C@H](O)CC2)n1 [Compound 917] | > 8.00 | ≤ 7.00 |
| CCCNc1nc([C@@H](C)OC)cc2cnc(Nc3ccc(N4CCNCC4)cn3)nc12 [Compound 920] | > 8.00 | ≤ 7.00 |
| CCCNc1nc([C@@H](C)O)cc2cnc(Nc3ccc(N4CCNCC4)cn3)nc12 [Compound 921] | > 8.00 | ≤ 7.00 |
| CCCCNc1nc([C@@H](C)O)cc2cnc(Nc3ccc(N4CCNCC4)cn3)nc12 [Compound 922] | > 8.00 | ≤ 7.00 |
| Cc1nc(Nc2ncc3cc([C@@H](C)O)nc(NC(C)C)c3n2)ccc1N1CCNCC1 [Compound 924] | > 8.00 | ≤ 7.00 |
| CC(C)Nc1nc([C@@H](C)O)cc2cnc(Nc3ccc4c(n3)CCN(C(=O)C3CCNCC3)C4)nc12 [Compound 932] | > 8.00 | ≤ 7.00 |
| CNC(=O)N1CCc2nc(Nc3ncc4cc([C@@H](C)O)nc(NC(C)C)c4n3)ccc2C1 [Compound 933] | > 8.00 | ≤ 7.00 |
| CC(C)Nc1nc([C@@H](C)O)cc2cnc(Nc3ccc4c(n3)CCN(S(C)(=O)=O)C4)nc12 [Compound 934] | > 8.00 | ≤ 7.00 |

More lines, now with the values ahead:

| pIC50 (CDK4/cyclin D3) | pIC50 (CDK2/cyclin A2) | SMILES |
| --- | --- | --- |
| > 8.00 | ≤ 7.00 | CC1(c2cc3cnc(Nc4ccc(CN5CCNCC5)cn4)nc3c(N[C@H]3CCCOC3)n2)COC1 [Compound 884] |
| > 8.00 | ≤ 7.00 | CC(C)Nc1nc(C2CCOC2)cc2cnc(Nc3ccc4c(n3)CCNC4)nc12 (stereo not shown) [Compound 885] |
| > 8.00 | ≤ 7.00 | c1cc2c(nc1Nc1ncc3cc(C4CCOC4)nc(N[C@H]4CCCOC4)c3n1)CCNC2 (stereo partly shown) [Compound 886] |
| > 8.00 | ≤ 7.00 | CC(C)Nc1nc(C2(C)COC2)cc2cnc(Nc3ccc4c(n3)CCNC4)nc12 [Compound 887] |
| > 8.00 | ≤ 7.00 | CC1(c2cc3cnc(Nc4ccc5c(n4)CCNC5)nc3c(N[C@H]3CCCOC3)n2)COC1 [Compound 888] |
| 7.00 to 8.00 | ≤ 7.00 | CO[C@H](C)c1cc2cnc(Nc3ccc(N4CCN(CC(=O)O)CC4C(F)(F)F)cn3)nc2c(NC(C)C)n1 (stereo partly shown) [Compound 891] |
| 7.00 to 8.00 | ≤ 7.00 | CC(C)Nc1nc([C@@H](C)O)cc2cnc(Nc3ccc(N4CCN(CC(=O)O)CC4C(F)(F)F)cn3)nc12 (stereo partly shown) [Compound 892] |
| 7.00 to 8.00 | ≤ 7.00 | CO[C@H](C)c1cc2cnc(Nc3ccc(N4CCN(CC(=O)O)CC4=O)cn3)nc2c(NC(C)C)n1 [Compound 894] |
| > 8.00 | ≤ 7.00 | CC(C)Nc1nc([C@@H](C)O)cc2cnc(Nc3ccc(N4CCN(C(C)C(=O)O)CC4=O)cn3)nc12 (stereo partly shown) [Compound 895] |
| > 8.00 | ≤ 7.00 | CC(C)Nc1nc([C@@H](C)O)cc2cnc(Nc3ccc(N4CCNC(C(F)(F)F)C4)nn3)nc12 (stereo partly shown) [Compound 896] |
| > 8.00 | ≤ 7.00 | CC(C)Nc1nc([C@@H](C)O)cc2cnc(Nc3ccc(N4CCn5ccnc5C4)nn3)nc12 [Compound 898] |
| > 8.00 | ≤ 7.00 | CC(C)Nc1nc([C@@H](C)O)cc2cnc(Nc3ccc(N4CCN(CC#N)CC4)nn3)nc12 [Compound 901] |
| > 8.00 | ≤ 7.00 | CC(C)Nc1nc([C@@H](C)O)cc2cnc(Nc3ccc4c(n3)CCN(C(=O)CN(C)C)C4)nc12 [Compound 905] |
| > 8.00 | ≤ 7.00 | CO[C@H](C)c1cc2cnc(Nc3ccc(N4CCN(C(C)C#N)CC4)nn3)nc2c(NC(C)C)n1 (stereo partly shown) [Compound 907] |
| 7.00 to 8.00 | ≤ 7.00 | CCCNc1nc(C(C)=O)cc2cnc(Nc3ccc(CN4CCNCC4)cn3)nc12 [Compound 910] |
| > 8.00 | ≤ 7.00 | CCCCNc1nc(C(C)=O)cc2cnc(Nc3ccc(CN4CCNCC4)cn3)nc12 [Compound 911] |
| > 8.00 | ≤ 7.00 | CO[C@H](C)c1cc2cnc(Nc3ccc(CN4CCN(CCO)CC4)cn3)nc2c(NCC2CCOCC2)n1 [Compound 918] |
| > 8.00 | ≤ 7.00 | CCNc1nc([C@@H](C)OC)cc2cnc(Nc3ccc(N4CCNCC4)cn3)nc12 [Compound 919] |
| > 8.00 | ≤ 7.00 | CC(C)Nc1nc([C@@H](C)O)cc2cnc(Nc3ccc(N4CC(C)(C)NCC4=O)cn3)nc12 [Compound 923] |
| > 8.00 | ≤ 7.00 | CO[C@H](C)c1cc2cnc(Nc3ccc(N4CCNCC4)c(C)n3)nc2c(NC(C)C)n1 [Compound 925] |
| > 8.00 | ≤ 7.00 | CC(C)Nc1nc([C@@H](C)O)cc2cnc(Nc3ccc(N4CCC(O)CC4=O)cn3)nc12 (stereo partly shown) [Compound 926] |
| > 8.00 | ≤ 7.00 | CO[C@H](C)c1cc2cnc(Nc3ccc(OC4CCNCC4)cn3)nc2c(NCC2CCOCC2)n1 [Compound 927] |
| > 8.00 | ≤ 7.00 | CO[C@H](C)c1cc2cnc(Nc3ccc(CN4CCNCC4)cn3)nc2c(NC(C)C2CCOCC2)n1 (stereo partly shown) [Compound 928] |
| > 8.00 | ≤ 7.00 | CNCCN1CCc2nc(Nc3ncc4cc([C@@H](C)O)nc(NC(C)C)c4n3)ccc2C1 [Compound 930] |
| > 8.00 | ≤ 7.00 | CC(C)Nc1nc([C@@H](C)O)cc2cnc(Nc3ccc4c(n3)CCN(C(=O)[C@@H](N)C(C)C)C4)nc12 [Compound 931] |
| 7.00 to 8.00 | ≤ 7.00 | CC(C)Nc1nc([C@@H](C)O)cc2cnc(Nc3ccc4c(n3)CCN(S(=O)(=O)N(C)C)C4)nc12 [Compound 935] |
